pIC50: −log10 of the molar value.
Tests used:
[1] = test system: LTB4 formation; experiment: LTB4 formation in LPS/fMLP-stimulated human blood; type: cell-based; conditions: 100 nM
Protocol: LPS-activated monocytes were treated with A23187 (2.5 µM) and AA (20 µM) to induce lipid mediator biosynthesis as described for LO product formation. Human blood was pre-incubated with vehicle (DMSO) or α-T-13′-COOH (4a, 100 nM) for 10 min, primed with LPS (1 µg/ml) for 30 min and stimulated with N-formyl-methionyl-leucyl-phenylalanine (fMLP, Sigma-Aldrich; 1 µM) for 15 min at 37 °C.

[2] = target: T1, COX-2 (Homo sapiens, UniProt P35354); experiment: Activity of isolated COX-2; type: biochemical; parameters: purchased Cayman Chemicals; conditions: up to 10 µM
T1 sequence (P35354 18-604): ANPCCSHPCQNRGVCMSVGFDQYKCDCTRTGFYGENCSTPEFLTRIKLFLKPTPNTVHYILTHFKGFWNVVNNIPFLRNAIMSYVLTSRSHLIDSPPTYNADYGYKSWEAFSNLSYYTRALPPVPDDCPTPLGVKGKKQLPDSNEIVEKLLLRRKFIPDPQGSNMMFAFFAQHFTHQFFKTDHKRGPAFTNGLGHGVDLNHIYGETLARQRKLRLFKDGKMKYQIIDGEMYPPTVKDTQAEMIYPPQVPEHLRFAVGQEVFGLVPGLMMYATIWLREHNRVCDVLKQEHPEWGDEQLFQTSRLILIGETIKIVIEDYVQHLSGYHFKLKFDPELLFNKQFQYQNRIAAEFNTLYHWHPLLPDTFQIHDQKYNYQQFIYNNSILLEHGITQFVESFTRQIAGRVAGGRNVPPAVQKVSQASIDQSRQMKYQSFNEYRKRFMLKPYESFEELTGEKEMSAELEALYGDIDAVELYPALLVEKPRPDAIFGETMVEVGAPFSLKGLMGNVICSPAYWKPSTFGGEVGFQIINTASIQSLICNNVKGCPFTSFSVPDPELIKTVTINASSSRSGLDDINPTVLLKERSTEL
Protocol: Purified bovine COX-1 (Cayman Chemicals; 50 units) or human recombinant COX-2 (Cayman Chemicals; 20 units) in 100 mM Tris buffer pH 8, 5 mM glutathione, 5 µM hemoglobin, and 100 µM EDTA were pre-incubated with LCMs for 5 min at 4 °C followed by 1 min at 37 °C. Formation of COX-derived 12(S)-hydroxy-5-cis-8,10-trans-heptadecatrienoic acid (12-HHT) was initiated by addition of AA (COX-1: 5 μM; COX-2: 2 μM).

[3] = target: T2, 5-LO (Homo sapiens, UniProt P09917); experiment: 5-LO product formation in activated PMNL; type: cell-based; parameters: Freshly isolated PMNL (1 × 10^7); endogenous in cells; host or cells: human PMNL freshly isolated from leukocyte concentrates
T2 sequence (P09917 1-674): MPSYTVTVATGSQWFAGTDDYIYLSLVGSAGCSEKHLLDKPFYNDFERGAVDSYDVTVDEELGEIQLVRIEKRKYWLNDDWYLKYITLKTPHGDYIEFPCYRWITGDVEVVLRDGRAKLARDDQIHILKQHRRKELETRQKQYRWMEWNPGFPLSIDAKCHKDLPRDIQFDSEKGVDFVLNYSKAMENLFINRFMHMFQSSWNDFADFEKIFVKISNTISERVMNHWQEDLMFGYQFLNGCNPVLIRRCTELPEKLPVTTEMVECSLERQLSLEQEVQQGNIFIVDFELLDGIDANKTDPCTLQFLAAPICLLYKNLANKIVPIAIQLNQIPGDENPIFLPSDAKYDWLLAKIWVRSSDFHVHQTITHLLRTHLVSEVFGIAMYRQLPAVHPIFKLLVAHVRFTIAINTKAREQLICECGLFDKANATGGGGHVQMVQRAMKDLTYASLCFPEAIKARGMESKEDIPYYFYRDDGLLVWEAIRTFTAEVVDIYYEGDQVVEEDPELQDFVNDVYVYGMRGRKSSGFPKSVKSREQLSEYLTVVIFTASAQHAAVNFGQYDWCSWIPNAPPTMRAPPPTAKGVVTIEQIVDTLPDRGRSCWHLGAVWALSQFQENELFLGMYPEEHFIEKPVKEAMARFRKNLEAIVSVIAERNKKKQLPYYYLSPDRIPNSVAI
From the text: Human PMNL, monocytes, PBMC, and platelets were freshly isolated from leukocyte concentrates. The protocols for experiments with human blood and blood cells were approved by the ethical commission of the Friedrich-Schiller-University Jena. […] PMNL were recovered from the pellet after hypotonic lysis of erythrocytes. Platelets were obtained from the supernatant and washed with PBS pH 5.9/0.9% NaCl (1:1). […]

## Cc1c(C)c2c(c(C)c1O)CC[C@@](C)(CCCC(C)CCCC(C)CCCC(C)C(=O)O)O2 (stereo partly drawn) [4a, 13-((2R)-6-hydroxy-2,5,7,8-tetramethylchroman-2-yl)-2,6,10-trimethyltridecanoic acid]
[1]
  effect on LTB4 formation in activated human blood: inhibited
[2]
  inhibition of human recombinant COX-2: not inhibited
[3]
  pIC50: 7.10

— article PMC6148290, “Endogenous metabolites of vitamin E limit inflammation by targeting 5-lipoxygenase” (Nature Communications, 2018)
